Patent publication US4725683A, “Fluorophenoxyphenoxypropionates and derivatives thereof” (The Dow Chemical Company, priority 1985, dated 1988)

Tests used:
Format in all cases: in vivo
Wheat [1] = assay: Postemergent activity; settings: Triticum aestivum, post-emergence, 336 h, read-out: % Control
Procedure: (§1) Representative compositions of the present invention were evaluated for the postemergence control of species of plants listed in Table A. In these evaluations, pots of the plant species listed in Table A, grown to a height of about 10 cms, were used. Aqueous spray compositions, containing various amounts of 2-[4-(2-fluoro-4-trifluoromethylphenoxy)-phenoxy]propionic acid methy ester, i.e., 125 ppm, 62.5 ppm, 31.25 ppm, 15.6 ppm, 7.8 ppm and 3.9 ppm, respectively, were applied to separate pots. The spray compositions were made by mixing the active ingredient in acetone to 1/2 the final volume, i.e., twice the final concentration. An equal amount of water was added to the active ingredient/acetone mixture wherein the water contained 0.1 percent by weight of TWEEN® 200 surfactant. The application to the plants was made to the point of run-off and was carried out with conventional spraying equipment. Other pots were sprayed with similar compositions containing no toxicant to serve as controls. Thereafter, the pots were maintained under conditions conducive for plant growth. Two weeks after treatment, the pots were examined for plant growth and evaluated on a scale of 0 to 100 where 0 represents no effect and 100 represents complete kill. The results of the examination of the treated pots are set forth below in Table A.
(§2) Substantially the same procedures as those described in Example A were repeated except that the active ingredients were 2-[4-(4-chloro-2-fluorophenoxy)phenoxy]propionic acid; methyl ester and its R-enantiomer and 2-(4-(4-bromo-2-fluorophenoxy)phenoxy propionic acid; methyl ester and its R enantiomer. The results are listed below in Table B.
(§3) In further operations employing the above general procedures and the indicated test compounds the following results were obtained: […]

Wild Oats [2] = assay: Postemergent activity; settings: Avena fatua, post-emergence, 336 h, read-out: % Control
Procedure: as §1, §2, §3

Barley = assay: Postemergent activity
Procedure: (§4) Representative compositions of the present invention were evaluated for the postemergence control of species of plants listed in Table A. In these evaluations, pots of the plant species listed in Table A, grown to a height of about 10 cms, were used. […] The spray compositions were made by mixing the active ingredient in acetone to 1/2 the final volume, i.e., twice the final concentration. An equal amount of water was added to the active ingredient/acetone mixture wherein the water contained 0.1 percent by weight of TWEEN® 200 surfactant. The application to the plants was made to the point of run-off and was carried out with conventional spraying equipment. […] Thereafter, the pots were maintained under conditions conducive for plant growth.

Blackgrass = assay: Postemergent activity
Procedure: as §4

Cheatgrass = assay: Postemergent activity
Procedure: as §4

Green Foxtail = assay: Postemergent activity
Procedure: as §4

Yellow Foxtail [3] = assay: Postemergent activity
Procedure: as §4

Barnyard Grass = assay: Preemergent activity; settings: Echinochloa crus-galli, pre-emergence, read-out: Preemergence Control
Procedure: (§5) In a representative operation, 2-[4-(2-fluoro-4-trifluoromethylphenoxy)phenoxy]propionic acid methyl ester, to be utilized in a series of tests, is dissolved in acetone to one half of the final volume (twice the final concentration) to be used and the acetone solution in each case is admixed with an equal volume of water containing 0.1 percent by weight of Tween-20 surface active material (Tween-20 is a trademark of Atlas Chemical Company). The composition, generally in the nature of an emulsion, was employed to treat separate respective seed beds of sandy loam soil of good nutrient content wherein each seed bed contained separate groups of good viable seeds, each group being of one of a known plant species. The various beds were positioned side by side and exposed to substantially identical conditions of temperature and light. Each bed was maintained so as to prevent any interaction with the test compound in different seed beds. Each seed bed was treated with the composition as a spray employing conventional spraying equipment to deposit a predetermined amount of the compound uniformly throughout the surface of the bed. Another seed bed was treated only with the acetone-Tween-20 water mixture with no chemical added to serve as a control.

Crabgrass = assay: Preemergent activity
Procedure: as §5

Johnson Grass = assay: Preemergent activity; settings: Sorghum halepense, pre-emergence, read-out: Preemergence Control
Procedure: as §5

Wheat [4] = assay: Preemergent activity; settings: Triticum aestivum, pre-emergence, read-out: Preemergence Control
Procedure: as §5

Wild Oats [5] = assay: Preemergent activity; settings: Avena fatua, pre-emergence, read-out: Preemergence Control
Procedure: as §5

Yellow Foxtail [6] = assay: Preemergent activity; settings: Setaria, pre-emergence, read-out: Preemergence Control
Procedure: as §5

COC(=O)[C@@H](C)Oc1ccc(Oc2ccc(Cl)cc2F)cc1 [4-Chloro-(R-Enantiomer), R enantiomer of 2-[4-(4-chloro-2-fluorophenoxy)phenoxy]propionic acid methyl ester]
40%: pest or weed control at 7.8 ppm (Wild Oats [2]) | % Control (Barley; 125 ppm) | % Control (Blackgrass; 0.8 ppm) | % Control (Yellow Foxtail [3]; 3.2 ppm)
90%: % Control (Blackgrass; 3.2 ppm)
70%: plant injury at 62.5 ppm (Wheat [1]) | Preemergence Control (Crabgrass; 0.07 kgs/hectare)
100%: pest or weed control at 31.25 ppm (Wild Oats [2]) | pest or weed control at 62.5 ppm (Wild Oats [2]) | pest or weed control at 125 ppm (Wild Oats [2]) | % Control (Blackgrass; 12.5 ppm) | % Control (Blackgrass; 25 ppm) | % Control (Green Foxtail; 1.6 ppm) | % Control (Green Foxtail; 3.2 ppm) | % Control (Green Foxtail; 6.3 ppm) | % Control (Green Foxtail; 12.5 ppm) | % Control (Green Foxtail; 25 ppm) | % Control (Yellow Foxtail [3]; 12.5 ppm) | % Control (Yellow Foxtail [3]; 25 ppm) | pest or weed control at 560 g/ha (Barnyard Grass; 0.56 kgs/hectare) | pest or weed control at 1120 g/ha (Barnyard Grass; 1.12 kgs/hectare) | Preemergence Control (Crabgrass; 0.28 kgs/hectare) | Preemergence Control (Crabgrass; 0.56 kgs/hectare) | Preemergence Control (Crabgrass; 1.12 kgs/hectare)
30%: pest or weed control at 280 g/ha (Yellow Foxtail [6]; 0.28 kgs/hectare)
60%: plant injury at 125 ppm (Wheat [1]) | % Control (Yellow Foxtail [3]; 6.3 ppm) | pest or weed control at 560 g/ha (Wild Oats [5]; 0.56 kgs/hectare)
10%: pest or weed control at 140 g/ha (Barnyard Grass; 0.14 kgs/hectare) | plant injury at 560 g/ha (Wheat [4]; 0.56 kgs/hectare)
0%: plant injury at 7.8 ppm (Wheat [1]) | plant injury at 15.6 ppm (Wheat [1]) | plant injury at 31.25 ppm (Wheat [1]) | % Control (Barley; 7.8 ppm) | % Control (Barley; 15.6 ppm) | % Control (Barley; 31.25 ppm) | % Control (Barley; 62.5 ppm) | % Control (Blackgrass; 0.4 ppm) | % Control (Cheatgrass; 0.4 ppm) | % Control (Cheatgrass; 0.8 ppm) | % Control (Cheatgrass; 1.6 ppm) | % Control (Cheatgrass; 3.2 ppm) | % Control (Cheatgrass; 6.3 ppm) | % Control (Cheatgrass; 12.5 ppm) | % Control (Cheatgrass; 25 ppm) | % Control (Green Foxtail; 0.4 ppm) | % Control (Yellow Foxtail [3]; 0.4 ppm) | % Control (Yellow Foxtail [3]; 0.8 ppm) | % Control (Yellow Foxtail [3]; 1.6 ppm) | pest or weed control at 70 g/ha (Barnyard Grass; 0.07 kgs/hectare) | pest or weed control at 70 g/ha (Johnson Grass; 0.07 kgs/hectare) | pest or weed control at 140 g/ha (Johnson Grass; 0.14 kgs/hectare) | plant injury at 70 g/ha (Wheat [4]; 0.07 kgs/hectare) | plant injury at 140 g/ha (Wheat [4]; 0.14 kgs/hectare) | plant injury at 280 g/ha (Wheat [4]; 0.28 kgs/hectare) | pest or weed control at 70 g/ha (Wild Oats [5]; 0.07 kgs/hectare) | pest or weed control at 140 g/ha (Wild Oats [5]; 0.14 kgs/hectare) | pest or weed control at 280 g/ha (Wild Oats [5]; 0.28 kgs/hectare) | pest or weed control at 70 g/ha (Yellow Foxtail [6]; 0.07 kgs/hectare) | pest or weed control at 140 g/ha (Yellow Foxtail [6]; 0.14 kgs/hectare)
98%: pest or weed control at 280 g/ha (Barnyard Grass; 0.28 kgs/hectare) | Preemergence Control (Crabgrass; 0.14 kgs/hectare) | pest or weed control at 1120 g/ha (Johnson Grass; 1.12 kgs/hectare) | pest or weed control at 1120 g/ha (Yellow Foxtail [6]; 1.12 kgs/hectare)
95%: % Control (Blackgrass; 6.3 ppm) | pest or weed control at 560 g/ha (Johnson Grass; 0.56 kgs/hectare) | pest or weed control at 560 g/ha (Yellow Foxtail [6]; 0.56 kgs/hectare)
80%: pest or weed control at 15.6 ppm (Wild Oats [2]) | % Control (Blackgrass; 1.6 ppm) | % Control (Green Foxtail; 0.8 ppm) | pest or weed control at 280 g/ha (Johnson Grass; 0.28 kgs/hectare) | pest or weed control at 1120 g/ha (Wild Oats [5]; 1.12 kgs/hectare)
20%: plant injury at 1120 g/ha (Wheat [4]; 1.12 kgs/hectare)
